Experimental data as given in US20060276537A1, “Use of ladostigil for the treatment of multiple sclerosis” (priority 2005, published 2006).
Marks after values point to notes of the source that are not given here.

Test system: acetylcholinesterase (AChE)
Test: Cholinesterase assay (modified Ellman, ATC substrate) in brain and blood of treated EAE mice
Type: in vivo
Settings: for Blood AChE U/ml / Blood AchE % inhibition: blood of EAE mice; for Brain AChE U/g (Total ChE) / Brain AchE % inhibition: brain of EAE mice
Description: From the mice of Example 2, acetylcholinesterase (AChE) and butyrylcholinesterase (BChE) activities were determined by a modification of Ellman's spectophotometric method using acetyltiocholine (ATC) and butyryltiocholine (BTC) as substrates.
Homogenate of 100 mg brain tissue in 1 ml 100 mM phosphate buffer pH=8.0 was prepared. 0.4 ml of crude homogenate was added to 1.2 ml pre-warmed 4 mM 5,5′-Dithiobis(2-nitrobenzoic acid) (DTNB or Ellman's reagant); 30 μl from this mixture were added to 210 μl pre-warmed (28° C.) 50 mM phosphate buffer in a microplate; and the reaction was started by addition of 10 μl ATC or BTC (final concentration=1 mM) or water (for the blank reaction) The increase in optical density (OD) at 412 nm was monitored for 3 minutes and the slope of the straight line obtained by linear regression provided the activity in terms of ΔOD/min using SOFTMAX® software. Blank reaction was subtracted.
Conversion of ΔOD/min into Enzyme Activity was Performed as Follows: Unit enzyme/gram tissue=OD/min*0.25/10.54*4*1000/30*11
The same procedure was performed as with brain homogenate using 50 μl of ¼ hemolysate/DTNB mixture.
Enzyme activity in the blood was calculated in units/1 ml whole blood.
AChE activity was calculated as follows: AChE activity=ΔOD/min (determined with ATC)−ΔOD/min (determined with BTC)/0.7
0.7=BChE activity on BTC/BChE activity on ATC. It was determined by using 1.25-10^−6M BW281C51 to inhibit AChE and with ATC and BTC as substrates.

[1] = 51 and 70.1 mg/kg/day, doses effective in ameliorating EAE

For C#CCN[C@@H]1CCc2ccc(OC(=O)N(C)CC)cc21 [Ladostigil, R(+)-6-(N-methyl,N-ethyl-carbamoyloxy)-N′-propargyl-1-aminoindan], the “inhibition of AChE in blood” value [1] was 60-65%, the “inhibition of AChE in brain” value [1] was 47-52% and the “Blood AChE U/ml” value (10.2 mg/kg salt) was 0.85 +/− 0.17 U/ml. For the same compound, the “Blood AchE % inhibition” value (10.2 mg/kg salt) was 37.4* %, the “Blood AChE U/ml” value (25.5 mg/kg salt) was 0.73 +/− 0.12 U/ml and the “Blood AchE % inhibition” value (25.5 mg/kg salt) was 46.3* %. For the same compound, the “Blood AChE U/ml” value (51 mg/kg salt) was 0.54 +/− 0.1 U/ml, the “Blood AchE % inhibition” value (51 mg/kg salt) was 60.2* % and the “Blood AChE U/ml” value (70.1 mg/kg salt) was 0.48 +/− 0.1 U/ml. The “Blood AchE % inhibition” value (70.1 mg/kg salt) was 64.9* %, the “Brain AChE U/g (Total ChE)” value (10.2 mg/kg salt) was 8.77 +/− 1.23 U/g and the “Brain AchE % inhibition” value (10.2 mg/kg salt) was 13.4%. The “Brain AChE U/g (Total ChE)” value (25.5 mg/kg salt) was 7.42 +/− 1.29 U/g, the “Brain AchE % inhibition” value (25.5 mg/kg salt) was 26.8* % and the “Brain AChE U/g (Total ChE)” value (51 mg/kg salt) was 5.41 +/− 0.6 U/g. For the same compound, the “Brain AchE % inhibition” value (51 mg/kg salt) was 46.6* %, the “Brain AChE U/g (Total ChE)” value (70.1 mg/kg salt) was 4.85 +/− 0.65 U/g and the “Brain AchE % inhibition” value (70.1 mg/kg salt) was 52.2* %.
